# Test results published in patent US10626094B2 (La Jolla Institute of Allergy & Immunology, priority 2014, dated 2020).
# Target: LMPTP-A (Low Molecular Weight Protein Tyrosine Phosphatase-A) enzyme (Homo sapiens (Human), UniProt P24666)
# Experiment: LMPTP primary screening / LMPTP (OMFP) enzyme inhibition assay, fluorescence intensity
# Format: biochemical
# Settings: IC50 (nM), LMPTP-A, OMFP substrate, method of Example 2
# Description: This assay attempts to identify inhibitors of the LMPTP-A (Low Molecular Weight Protein Tyrosine Phosphatase-A) enzyme. It is run in 1536-well format and is measured via fluorescence intensity.
# A listing of materials is provided: • Item, source, catalog no. • LMPTP-A Enzyme Stock Solution (4.22 mg/ml or 206.8 μM), SBMRI Protein Facility, • N/A • OMFP, Sigma, M2629-100MG • Bis-Tris pH 6.0, Fisher Sci, BP301-100 • Triton-X 100, Sigma, T9284 • DTT, Sigma, D9779 • Mol. Grade Water, Mediatech, Inc., 46-000-CM • 1536-well black High base opaque bottom plate, Nexus Biosystems, 00019120
# Final assay conditions are: • 0.625 nM LMPTP-A Enzyme • 400 μM OMFP • 50 mM Bis-Tris pH 6.0 • 1 mM DTT • 0.01% Triton-X 100 • 20 μM test compound • 3% DMSO (2% from substrate and 1% from compounds) • 6 μL reaction volume • 50 minutes incubation at room temp
# Assay Procedure • 1. Prepare Reagents as described in section F. Recipe. • 2. Using LabCyte Echo, transfer 60 nL from 2 mM test compound source plate into assay plate Col. 5-48 (final concentration of test compounds is 20 μM). 60 nL of DMSO should be transferred to col. 1-4 for positive and negative control wells. • 3. Spin plates at 1000 rpm for 1 minute in centrifuge. • 4. […] Using the Bioraptr, add 3 μL/well of enzyme solution to col. 3-48. • 6. Using the Bioraptr, add 3 μL/well of substrate solution to col. 1-48. • 7. Spin plates at 1000 rpm for 1 minute in centrifuge. • 8. Incubate plates in the dark at room temperature for 50 minutes. • 9. Read plates on PerkinElmer Viewlux using a FI protocol.
# LMPTP-A (Low Molecular Weight Protein Tyrosine Phosphatase-A) enzyme, sequence (P24666 whole entry): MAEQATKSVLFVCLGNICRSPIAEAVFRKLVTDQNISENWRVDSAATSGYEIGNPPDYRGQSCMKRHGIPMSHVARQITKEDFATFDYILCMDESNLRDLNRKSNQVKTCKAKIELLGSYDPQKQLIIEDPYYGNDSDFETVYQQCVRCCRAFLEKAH
row,Compound,IC50 [nM]
1,"COc1ccc(-c2cc(Nc3ccccn3)c3ccccc3n2)cc1 [Compound G63, [2-(4-Methoxy-phenyl)-quinolin-4-yl]-pyridin-2-yl-amine]",801 to 5000

# Same assay, conditions: LMPTP-A, OMFP substrate, method of Example 2; read-out: IC50
row,Compound,IC50 [nM]
1,"COc1ccc(-c2cc(Nc3ccc(C(F)(F)F)cc3)c3ccccc3n2)cc1 [Compound G42, [2-(4-methoxyphenyl)(4-quinolyl)][4-(trifluoromethyl)phenyl]amine]",801 to 5000
2,"COc1ccc(-c2cc(Nc3ccc(C)cc3)c3ccccc3n2)cc1 [Compound G43, [2-(4-methoxyphenyl)(4-quinolyl)](4-methylphenyl)amine]",801 to 5000
3,"COc1ccc(-c2cc(Nc3ccc(OC(C)C)cc3)c3ccccc3n2)cc1 [Compound G44, [2-(4-methoxyphenyl)(4-quinolyl)][4-(methylethoxy)phenyl]amine]",801 to 5000
4,"CCOC(=O)c1ccc(Nc2cc(-c3ccc(OC)cc3)nc3ccccc23)cc1 [Compound G45, ethyl 4-{[2-(4-methoxyphenyl)-4-quinolyl]amino}benzoate]",> 5000
5,COc1ccc(-c2cc(Nc3ccn(C)n3)c3ccccc3n2)cc1 [Compound G46],801 to 5000
6,"COc1ccc(-c2cc(Nc3ccc(C#N)cc3)c3ccccc3n2)cc1 [Compound G47, 4-{[2-(4-methoxyphenyl)-4-quinolyl]amino}benzenecarbonitrile]",200 to 800
7,"COc1ccc(-c2cc(Nc3ccc(OC)nc3)c3ccccc3n2)cc1 [Compound G48, (6-methoxy(3-pyridyl))[2-(4-methoxyphenyl)(4-quinolyl)]amine]",200 to 800
8,"COc1ccc(-c2cc(Nc3ccc(F)c(Cl)c3)c3ccccc3n2)cc1 [Compound G49, (3-chloro-4-fluorophenyl)[2-(4-methoxyphenyl)(4-quinolyl)]amine]",801 to 5000
9,"COc1ccc(-c2cc(Nc3cccc(CN4CCCC4)c3)c3ccccc3n2)cc1 [Compound G50, [2-(4-methoxyphenyl)(4-quinolyl)][3-(pyrrolidinylmethyl)phenyl]amine]",200 to 800
10,"COc1ccc(-c2cc(Nc3ccc(CN4CCOCC4)cc3)c3ccccc3n2)cc1 [Compound G52, [2-(4-methoxyphenyl)(4-quinolyl)][4-(morpholin-4-ylmethyl)phenyl]amine]",801 to 5000
11,"COc1ccc(-c2cc(Nc3cccc(CN4CCCCC4)c3)c3ccccc3n2)cc1 [Compound G54, [2-(4-methoxyphenyl)(4-quinolyl)][3-(piperidylmethyl)phenyl]amine]",801 to 5000
12,"COc1ccc(-c2cc(Nc3cccc(CN4CCOCC4)c3)c3ccccc3n2)cc1 [Compound G55, [2-(4-methoxyphenyl)(4-quinolyl)][3-(morpholin-4-ylmethyl)phenyl]amine]",200 to 800
13,"COc1ccc(-c2cc(Nc3cccc(CN4CCSCC4)c3)c3ccccc3n2)cc1 [Compound G56, [2-(4-methoxyphenyl)(4-quinolyl)][3-(1,4-thiazaperhydroin-4-ylmethyl)phenyl]amine]",200 to 800
14,"COc1ccc(-c2cc(Nc3cccc(CN4CCCN(C)CC4)c3)c3ccccc3n2)cc1 [Compound G57, [2-(4-methoxyphenyl)(4-quinolyl)]{3-[(4-methyl(1,4-diazaperhydroepinyl))methyl]phenyl}amine]",200 to 800
15,"COc1ccc(-c2cc(Nc3cccc(CN(C)C)c3)c3ccccc3n2)cc1 [Compound G58, [(3-{[2-(4-methoxyphenyl)(4-quinolyl)]amino}phenyl)methyl]dimethylamine]",200 to 800
16,"COc1ccc(-c2cc(Nc3cccc(CN4CCNCC4)c3)c3ccccc3n2)cc1 [Compound G59, [2-(4-methoxyphenyl)(4-quinolyl)][3-(piperazinylmethyl)phenyl]amine]",801 to 5000
17,"COc1ccc(-c2cc(Nc3cccc(CN4CCN(C)CC4)c3)c3ccccc3n2)cc1 [Compound G60, [2-(4-methoxyphenyl)(4-quinolyl)]{3-[(4-methylpiperazinyl)methyl]phenyl}amine]",801 to 5000
18,"CCN(CC)Cc1cccc(Nc2cc(-c3ccc(OC)cc3)nc3ccccc23)c1 [Compound G61, (3-Diethylaminomethyl-phenyl)-[2-(4-methoxy-phenyl)-quinolin-4-yl]-amine]",801 to 5000
19,"COc1ccc(-c2cc(Nc3cccc(CN4CCS(=O)(=O)CC4)c3)c3ccccc3n2)cc1 [Compound G62, 4-[(3-{[2-(4-methoxyphenyl)-4-quinolyl]amino}phenyl)methyl]-1,4-thiazaperhydroine-1,1-dione]",801 to 5000
20,COc1ccc(-c2cc(Nc3cccnc3)c3ccccc3n2)cc1 [Compound G64],801 to 5000
21,"COc1ccc(-c2cc(NCc3ccc(Cl)cc3)c3ccccc3n2)cc1 [Compound G74, [(4-chlorophenyl)methyl][2-(4-methoxyphenyl)(4-quinolyl)]amine]",801 to 5000

# Other lines, results leading:
row,IC50 [nM],Compound
1,801 to 5000,"COc1ccc(-c2cc(Nc3ccncc3)c3ccccc3n2)cc1 [Compound G65, [2-(4-methoxyphenyl)(4-quinolyl)]-4-pyridylamine]"
2,801 to 5000,"COc1ccc(-c2cc(Nc3cncnc3)c3ccccc3n2)cc1 [Compound G66, [2-(4-methoxyphenyl)(4-quinolyl)]pyrimidin-5-ylamine]"
3,801 to 5000,"COc1ccc(-c2cc(Nc3cccc(C)n3)c3ccccc3n2)cc1 [Compound G67, [2-(4-methoxyphenyl)(4-quinolyl)](6-methyl(2-pyridyl))amine]"
4,801 to 5000,"COc1ccc(-c2cc(Nc3ccc4ccccc4n3)c3ccccc3n2)cc1 [Compound G68, [2-(4-methoxyphenyl)(4-quinolyl)]-2-quinolylamine]"
5,> 5000,COc1ccc(-c2cc(Nc3cccc4cccnc34)c3ccccc3n2)cc1 [Compound G69]
6,801 to 5000,"COc1ccc(-c2cc(Nc3ccncn3)c3ccccc3n2)cc1 [Compound G70, [2-(4-methoxyphenyl)(4-quinolyl)]pyrimidin-4-ylamine]"
7,801 to 5000,"COc1ccc(-c2cc(Nc3ccnnc3)c3ccccc3n2)cc1 [Compound G71, [2-(4-methoxyphenyl)(4-quinolyl)]pyridazin-4-ylamine]"
8,801 to 5000,"COc1ccc(-c2cc(Nc3ncccn3)c3ccccc3n2)cc1 [Compound G72, [2-(4-methoxyphenyl)(4-quinolyl)]pyrimidin-2-ylamine]"
9,801 to 5000,"COc1ccc(-c2cc(Nc3cncc(C)n3)c3ccccc3n2)cc1 [Compound G73, [2-(4-methoxyphenyl)(4-quinolyl)](6-methylpyrazin-2-yl)amine]"
10,801 to 5000,"COc1ccc(-c2cc(NCc3ccccc3)c3ccccc3n2)cc1 [Compound G75, [2-(4-methoxyphenyl)(4-quinolyl)]benzylamine]"
11,801 to 5000,COc1ccc(-c2cc(NC(C)c3ccccc3)c3ccccc3n2)cc1 (stereo not shown) [Compound G76]
12,801 to 5000,"COc1ccc(-c2cc(NCc3ccccc3OC)c3ccccc3n2)cc1 [Compound G77, [2-(4-methoxyphenyl)(4-quinolyl)][(2-methoxyphenyl)methyl]amine]"
13,801 to 5000,"COc1ccc(-c2cc(NCc3cccc(OC)c3)c3ccccc3n2)cc1 [Compound G78, [2-(4-methoxyphenyl)(4-quinolyl)][(3-methoxyphenyl)methyl]amine]"
14,801 to 5000,"COc1ccc(CNc2cc(-c3ccc(OC)cc3)nc3ccccc23)cc1 [Compound G79, [2-(4-methoxyphenyl)(4-quinolyl)][(4-methoxyphenyl)methyl]amine]"
15,801 to 5000,"COc1ccc(-c2cc(NCc3ccccc3C(F)(F)F)c3ccccc3n2)cc1 [Compound G80, [2-(4-methoxyphenyl)(4-quinolyl)]{[2-(trifluoromethyl)phenyl]methyl}amine]"
16,801 to 5000,"COc1ccc(-c2cc(NCc3ccc(C(F)(F)F)cc3)c3ccccc3n2)cc1 [Compound G81, [2-(4-methoxyphenyl)(4-quinolyl)]{[4-(trifluoromethyl)phenyl]methyl}amine]"
17,801 to 5000,"COc1ccc(-c2cc(NCc3cccc(C#N)c3)c3ccccc3n2)cc1 [Compound G82, 3-({[2-(4-methoxyphenyl)-4-quinolyl]amino}methyl)benzenecarbonitrile]"
18,801 to 5000,"COc1ccc(-c2cc(NCCc3ccccc3)c3ccccc3n2)cc1 [Compound G83, [2-(4-methoxyphenyl)(4-quinolyl)](2-phenylethyl)amine]"
19,801 to 5000,"COc1ccc(-c2cc(NCCc3ccc(Cl)cc3)c3ccccc3n2)cc1 [Compound G84, [2-(4-chlorophenyl)ethyl][2-(4-methoxyphenyl)(4-quinolyl)]amine]"
20,801 to 5000,"COc1ccc(CCNc2cc(-c3ccc(OC)cc3)nc3ccccc23)cc1 [Compound G85, [2-(4-methoxyphenyl)(4-quinolyl)][2-(4-methoxyphenyl)ethyl]amine]"
21,801 to 5000,"COc1ccc(-c2cc(NCCc3ccc(C(F)(F)F)cc3)c3ccccc3n2)cc1 [Compound G86, [2-(4-methoxyphenyl)(4-quinolyl)]{2-[4-(trifluoromethyl)phenyl]ethyl}amine]"
